# Data reported in US7977364B2, “Indazoles, benzisoxazoles and benzisothiazoles and their use as estrogenic agents” (Laboratoire Thermamex, priority 2004, dated 2011).
# Like-named read-outs stand apart in the source and are kept apart here.
# What was measured:
# ovariectomized rats [1] = assay: Hot flush model in vivo: tail skin temperature, uteri and body weight
# ovariectomized rats [2] = conditions: rat, in vivo
# Prepubescent female rats = assay: Estrogenic / uterotrophic activity in vivo (uterus wet weight); set-up: species or system rat; conditions: for change in vivo at 3 mg: orally 3 mg/rat/day for 3 days
# Outline: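 Prepubescent female rats dosed orally for 3 days at 3 mg/rat/day, or at 0.3, 1, 3 or 10 mg/rat/day. Uteri removed the following day and wet-weighed; values given as % stimulation of uterine weight over vehicle.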
# rats = assay: Forced swimming test (antidepressant activity, immobility duration); type: in vivo, rat
# From the text: Antidepressant effect of estradiol was recently reported in studies using ER β KO mice model. In addition, ER β localization in dorsal raphe nucleus area in rat has been described. The gold standard test for antidepressant potency of compound consist in the forced swimming test, in this experiment antidepressants could be distinguished from psychostimulants which decreased immobility at doses which increased general activity. In order to investigate the putative antidepressant potency of the compounds reported here, the forced swimming test was performed according to the following design. The animals were housed six per cage under standard colony conditions, with a 12 h light/dark cycle and ad libitum food and water. They were allowed to acclimatize to the colony for at least 7 days prior to any experimentation. For subcutaneous administration, the compound of Example 23 was dissolved in olive oil and diluted to the desired concentration on the day of administration. For positive control, intraperitoneal (i.p.) injection of desipramine was done. Desipramine was dissolved in double-distilled water (10 mg/kg). The experiments were conducted 30 min after the positive control drug treatment (only for desipramine treatment). Other compounds, ie: estradiol and the compound of Example 23 were daily injected subcutaneously in rats, during a 7 days period. Acquisition were performed on day 8 (24 h after the last administration of items) and day 9 (48 h after estradiol or compound 23 administration), respectively. Data acquired 24 hours after the last administration consisted in the “naïve animal group”, these animals had never been previously tested in the device. Data acquired 48 hours after a last administration of compounds consisted in “trained animal group”.
# On the 8th, the forced swim test was performed. This study was carried out in rats according to the methods described by Porsolt (Eur. J. Pharm., 1978). Briefly, rats were placed individually in glass cylinders (height: 40 cm, diameter: 18 cm) containing 25 cm of water at 25° C. Ten minutes later, rats were removed and dried before being returned to their home cages. The animals were replaced in the cylinders 24 h later, and the procedure was repeated, and a 10-min observation period was recorded.
# [3] = test system: human breast cancer cell line MCF-7; assay: Proliferative activity in vitro (ATP luminescence, 6 days); type: cell-based; conditions: Homo sapiens, MCF7, 144 h
# Outline: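 Proliferative (estrogen-like) response of MCF-7 cells held in phenol red-free DMEM with 5% charcoal-stripped serum, seeded at 4.10^3 cells/well. Compounds in estrogen-free DMEM for six days at 37 °C. Viable cells by ATP luciferase luminescence as % of control; EC50 from sigmoidal dose-response curves.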
structure (smiles),measurement,setting,value
"Oc1ccc2c(C3CCCC3)n[nH]c2c1 [Ex 23, 3-cyclopentyl-1H-indazol-6-ol]",TST Variation day 1 vs day 0,ovariectomized rats [1]; 0.3 mg/rat/day,−0.8 C. °
same,TST Variation day 4 vs day 0,ovariectomized rats [1]; 0.3 mg/rat/day,−2.1 C. °
same,TST Variation day 7 vs day 0,ovariectomized rats [1]; 0.3 mg/rat/day,−1.9 C. °
same,tail skin temperature of ovariectomized rat,ovariectomized rats [1]; in words,decreased tail skin temperature
same,side-effects on uteri,ovariectomized rats [2],without deleterious side-effects on uteri
same,change in vivo at 3 mg,"Prepubescent female rats; Rattus norvegicus, po, 72 h, Table 4, read-out: % stimulation vs vehicle (uterus weight)",12%
same,change in vivo at 0.3 mg,"Prepubescent female rats; Rattus norvegicus, po, 72 h, Table 5, orally 0.3 mg/rat/day for 3 days, read-out: % stimulation vs vehicle (uterus weight)",-13%
same,change in vivo at 1 mg,"Prepubescent female rats; Rattus norvegicus, po, 72 h, Table 5, orally 1 mg/rat/day for 3 days, read-out: % stimulation vs vehicle (uterus weight)",-5%
same,change in vivo at 3 mg,"Prepubescent female rats; Rattus norvegicus, po, 72 h, Table 5, read-out: % stimulation vs vehicle (uterus weight)",-4%
same,change in vivo at 10 mg,"Prepubescent female rats; Rattus norvegicus, po, 72 h, Table 5, orally 10 mg/rat/day for 3 days, read-out: % stimulation vs vehicle (uterus weight)",20%
same,in vivo estrogenic activity after oral administration,Prepubescent female rats; in words,weak in vivo estrogenic activity
same,uterotrophicity after oral administration,"Prepubescent female rats; up to a 3 mg/animal/day dosage, in words",lack of uterotrophicity
same,"immobility duration, Naïve animals","rats; 2.8 mg/rat/day s.c. 7 days, 24 h after last administration, 10 minutes test",45.2 ± 15.6 s
same,"immobility duration, Trained animals","rats; 2.8 mg/rat/day s.c. 7 days, 48 h after last administration, 10 minutes test",160.7 ± 44.1 s
same,"antidepressor activity, animals first-in-the-test","rats; 24 h after administration, in words",exhibited a antidepressor activity
same,"antidepressor potency, trained animal group","rats; 48 h after administration, in words",disappeared
same,activity at 1 µM,"[3]; MCF-7, 10^−6 M, six days, read-out: Effect at 10^−6 M (% of control)",176%
same,activity at 0.01 µM,"[3]; MCF-7, 10^−8 M, six days, read-out: Effect at 10^−8 M (% of control)",81.7%
same,EC50,"[3]; MCF-7, six days, read-out: Cell proliferation EC50 (nM) ± S.E.M",376 ± 70.1 nM
